Assays:
[1] = target: T1, androgen receptor (AR-LBD) (Rattus norvegicus, UniProt P15207); assay: Evaluation of androgen receptor affinity (PolarScreen Androgen Receptor Competitor Assay Kit, Red; fluorescence polarization); settings: 22° C. for 5 hours, relative to binding rate of 1 μM DHT, read-out: AR affinity (pEC50) (converted)
T1 construct: 5 μL of 2×AR-LBD/Fluoromone AL Red Complex contained in the kit; purchased Invitrogen
T1 sequence (P15207 651-882 limits assumed): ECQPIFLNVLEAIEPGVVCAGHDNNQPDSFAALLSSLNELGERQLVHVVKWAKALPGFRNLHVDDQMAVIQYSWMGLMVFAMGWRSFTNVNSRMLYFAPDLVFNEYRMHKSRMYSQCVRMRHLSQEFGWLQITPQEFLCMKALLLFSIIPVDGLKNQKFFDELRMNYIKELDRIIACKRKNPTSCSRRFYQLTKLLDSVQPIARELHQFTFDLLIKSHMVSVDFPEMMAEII
Summary of the method: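 Test compound and the 2× AR-LBD/Fluoromone AL Red complex were combined in duplicate wells. After reacting 5 h at 22° C, polarization was measured. pEC50 was derived by 4-parameter fitting, normalizing to binding obtained with 1 μM dihydrotestosterone.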

[2] = target: T2, human androgen receptor (Homo sapiens, UniProt P10275); assay: Reporter assay of an androgen receptor responsive sequence (luciferase, transiently transfected HEK293 cells); type: cell-based; settings: 24 hours incubation, relative to activity of 100 nM DHT, read-out: AR transcriptive activity (pEC50) (converted)
T2 construct: expressed in transfected cells; host or cells: HEK293
T2 sequence (P10275 1-920): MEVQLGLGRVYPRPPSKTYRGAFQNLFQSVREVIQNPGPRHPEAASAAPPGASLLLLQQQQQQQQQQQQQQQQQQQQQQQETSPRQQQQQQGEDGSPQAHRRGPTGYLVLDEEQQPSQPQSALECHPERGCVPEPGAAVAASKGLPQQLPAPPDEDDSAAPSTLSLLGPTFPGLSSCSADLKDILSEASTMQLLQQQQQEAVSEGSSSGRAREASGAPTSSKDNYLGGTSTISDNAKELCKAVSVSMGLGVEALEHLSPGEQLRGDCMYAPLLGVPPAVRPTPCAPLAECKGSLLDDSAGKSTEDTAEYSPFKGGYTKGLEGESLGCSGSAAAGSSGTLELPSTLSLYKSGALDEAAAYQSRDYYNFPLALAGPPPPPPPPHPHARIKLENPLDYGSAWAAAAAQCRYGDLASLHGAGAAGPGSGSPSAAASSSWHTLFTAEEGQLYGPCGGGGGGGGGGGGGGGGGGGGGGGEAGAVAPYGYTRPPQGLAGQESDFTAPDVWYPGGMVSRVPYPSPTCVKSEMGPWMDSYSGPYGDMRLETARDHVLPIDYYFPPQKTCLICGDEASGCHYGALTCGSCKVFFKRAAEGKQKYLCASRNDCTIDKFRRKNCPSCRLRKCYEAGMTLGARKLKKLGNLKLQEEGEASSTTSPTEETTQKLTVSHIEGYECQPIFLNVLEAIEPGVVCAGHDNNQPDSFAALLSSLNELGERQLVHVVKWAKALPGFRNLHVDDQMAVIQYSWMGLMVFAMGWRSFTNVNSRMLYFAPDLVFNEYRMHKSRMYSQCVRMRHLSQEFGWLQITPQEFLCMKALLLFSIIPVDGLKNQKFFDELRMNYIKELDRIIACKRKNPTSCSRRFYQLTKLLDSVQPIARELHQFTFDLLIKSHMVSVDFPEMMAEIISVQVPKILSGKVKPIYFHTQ
Summary of the method: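 Agonism scored as pEC50, fitted by 4-parameter curve against the response to 100 nM DHT, from dual-luciferase readout after 24 h compound treatment. Cells were HEK293 co-transfected (3 h) with human AR expression vector, androgen-responsive firefly reporter and Renilla control, in charcoal-stripped serum.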

Row | SMILES | EC50 [1] | EC50 [2]
1 | Cc1sc(N(CCCCOc2ccccc2)c2ccc(C#N)cc2)nc1C(=O)NS(C)(=O)=O [Compound 369, 2-[4-cyano-N-(4-phenoxybutyl)anilino]-5-methyl-N-methylsulfonyl-thiazole-4-carboxamide] | 79.4 nM | > 10000 nM
2 | Cc1sc(N(Cc2cccc(-n3ccnc3)c2)c2ccc(C#N)cc2)nc1C(=O)NS(C)(=O)=O [Example 218, 2-[4-cyano-N-[(3-imidazol-1-ylphenyl)methyl]anilino]-5-methyl-N-methylsulfonyl-thiazole-4-carboxamide] | 251 nM | > 10000 nM
3 | Cc1sc(N(Cc2ccc3occc3c2)c2ccc(C#N)cc2)nc1C(=O)NS(C)(=O)=O [Compound 26, 2-[N-(benzofuran-5-ylmethyl)-4-cyano-anilino]-5-methyl-N-methylsulfonyl-thiazole-4-carboxamide] | 63.1 nM | 25.1 nM
4 | CS(=O)(=O)NC(=O)c1nc(N(Cc2ccc(Cl)c(Cl)c2)c2ccc(C#N)cc2)oc1C1CC1 [Compound 647, 2-[4-cyano-N-[(3,4-dichlorophenyl)methyl]anilino]-5-cyclopropyl-N-methylsulfonyl-oxazole-4-carboxamide] | 25.1 nM | > 10000 nM
5 | COCCCS(=O)(=O)NC(=O)c1nc(N(Cc2ccc(OC(F)F)cc2)c2ccc(C#N)cc2)sc1C1CC1 [Compound 666, 2-[4-cyano-N-[[4-(difluoromethoxy)phenyl]methyl]anilino]-5-cyclopropyl-N-(3-methoxypropylsulfonyl)thiazole-4-carboxamide] | 39.8 nM | > 10000 nM
6 | Cc1sc(N(Cc2ccccc2)c2ccc3ccccc3c2)nc1C(=O)NS(C)(=O)=O [Example 232, 2-[benzyl(2-naphthyl)amino]-5-methyl-N-methylsulfonyl-thiazole-4-carboxamide] | 200 nM | > 10000 nM
7 | Cc1sc(N(Cc2cccc(OCC(C)C)c2)c2ccc(C#N)cc2)nc1C(=O)NS(C)(=O)=O [Compound 586, 2-[4-cyano-N-[(3-isobutoxyphenyl)methyl]anilino]-5-methyl-N-methylsulfonyl-thiazole-4-carboxamide] | 79.4 nM | 7940 nM
8 | Cc1sc(N(CC2CC3CCC2C3)c2ccc(C#N)cc2)nc1C(=O)NS(C)(=O)=O (centres unmarked) [Compound 447, 2-[4-cyano-N-(norbornan-2-ylmethyl)anilino]-5-methyl-N-methylsulfonyl-thiazole-4-carboxamide] | 50.1 nM | 2510 nM
9 | Cc1sc(N(Cc2ccoc2)c2ccc(C#N)cc2)nc1C(=O)NS(C)(=O)=O [Compound 86, 2-[4-cyano-N-(3-furylmethyl)anilino]-5-methyl-N-methylsulfonyl-thiazole-4-carboxamide] | 251 nM | 1580 nM
10 | CCc1oc(N(Cc2ccccc2OC(F)F)c2ccc(C#N)cc2)nc1C(=O)NS(C)(=O)=O [Compound 637, 2-[4-cyano-N-[[2-(difluoromethoxy)phenyl]methyl]anilino]-5-ethyl-N-methylsulfonyl-oxazole-4-carboxamide] | 158 nM | > 10000 nM
11 | Cc1sc(N(Cc2cccc(Oc3ccccc3)c2)c2ccc(C#N)cc2)nc1C(=O)NS(C)(=O)=O [Compound 82, 2-[4-cyano-N-[(3-phenoxyphenyl)methyl]anilino]-5-methyl-N-methylsulfonyl-thiazole-4-carboxamide] | 79.4 nM | > 10000 nM
12 | COCCCS(=O)(=O)NC(=O)c1nc(N(Cc2ccc3ncsc3c2)c2ccc(C#N)cc2)sc1C [Example 195, 2-[N-(1,3-benzothiazol-6-ylmethyl)-4-cyano-anilino]-N-(3-methoxypropylsulfonyl)-5-methyl-thiazole-4-carboxamide] | 158 nM | 126 nM
13 | Cc1sc(N(Cc2ccc(Br)cn2)c2ccc(C#N)cc2)nc1C(=O)NS(C)(=O)=O [Compound 153, 2-[N-[(5-bromo-2-pyridyl)methyl]-4-cyano-anilino]-5-methyl-N-methylsulfonyl-thiazole-4-carboxamide] | 100 nM | 50.1 nM
14 | Cc1sc(N(CC(=O)c2ccccc2)Cc2ccccc2)nc1C(=O)NS(C)(=O)=O [Compound 463, 2-[benzyl(phenacyl)amino]-5-methyl-N-methylsulfonyl-thiazole-4-carboxamide] | 316 nM | 5010 nM
15 | Cc1sc(N(Cc2ccccc2)c2ccc(C#N)cc2)nc1C(=O)NS(=O)(=O)C(F)F [Compound 69, 2-(N-benzyl-4-cyano-anilino)-N-(difluoromethylsulfonyl)-5-methyl-thiazole-4-carboxamide] | 25.1 nM | 1260 nM
16 | Cc1sc(N(Cc2cc(F)cc(F)c2)c2ccc(C#N)cc2)nc1C(=O)NS(C)(=O)=O [Compound 96, 2-[4-cyano-N-[(3,5-difluorophenyl)methyl]anilino]-5-methyl-N-methylsulfonyl-thiazole-4-carboxamide] | 79.4 nM | 100 nM

Results, then the molecule that gave them:

Row | EC50 [1] | EC50 [2] | SMILES
17 | 158 nM | 316 nM | Cc1sc(N(Cc2ccc(OC(F)F)cn2)c2ccc(C#N)cc2)nc1C(=O)NS(C)(=O)=O [Compound 511, 2-[4-cyano-N-[[5-(difluoromethoxy)-2-pyridyl]methyl]anilino]-5-methyl-N-methylsulfonyl-thiazole-4-carboxamide]
18 | 39.8 nM | 501 nM | Cc1sc(N(Cc2ccc(OC(F)(F)F)cc2F)c2ccc(C#N)cc2)nc1C(=O)NS(C)(=O)=O [Example 178, 2-[4-cyano-N-[[2-fluoro-4-(trifluoromethoxy)phenyl]methyl]anilino]-5-methyl-N-methylsulfonyl-thiazole-4-carboxamide]
19 | 631 nM | > 10000 nM | COc1ccc(CCN(c2ccc(C#N)cc2)c2nc(C(=O)NS(C)(=O)=O)c(C)s2)cc1 [Compound 400, 2-[4-cyano-N-[2-(4-methoxyphenyl)ethyl]anilino]-5-methyl-N-methylsulfonyl-thiazole-4-carboxamide]
20 | 63.1 nM | 631 nM | Cc1sc(N(Cc2ccc([S+]([O-])C(F)(F)F)cc2)c2ccc(C#N)cc2)nc1C(=O)NS(C)(=O)=O (centres unmarked) [Compound 419, 2-[4-cyano-N-[[4-(trifluoromethylsulfinyl)phenyl]methyl]anilino]-5-methyl-N-methylsulfonyl-thiazole-4-carboxamide]
21 | 39.8 nM | 794 nM | Cc1oc(N(CCc2ccc(OC(F)(F)F)cc2)Cc2ccc(C(F)(F)F)nc2)nc1C(=O)NS(C)(=O)=O [Compound 562, 5-methyl-N-methylsulfonyl-2-[2-[4-(trifluoromethoxy)phenyl]ethyl-[[6-(trifluoromethyl)-3-pyridyl]methyl]amino]oxazole-4-carboxamide]
22 | 79.4 nM | 2000 nM | Cc1oc(N(Cc2cccc(Cl)c2)c2ccc(C#N)cc2)nc1C(=O)NS(C)(=O)=O [Compound 611, 2-[N-[(3-chlorophenyl)methyl]-4-cyano-anilino]-5-methyl-N-methylsulfonyl-oxazole-4-carboxamide]
23 | 200 nM | 631 nM | Cc1sc(N(CCc2ccc(Cl)cc2)Cc2ccc(Cl)cc2)nc1C(=O)NS(=O)(=O)C(F)(F)F [Compound 696, 2-[2-(4-chlorophenyl)ethyl-[(4-chlorophenyl)methyl]amino]-5-methyl-N-(trifluoromethylsulfonyl)thiazole-4-carboxamide]
24 | 39.8 nM | 501 nM | Cc1sc(N(Cc2ccc(OC(F)F)nc2)c2ccc(C#N)cc2)nc1C(=O)NS(C)(=O)=O [Compound 524, 2-[4-cyano-N-[[6-(difluoromethoxy)-3-pyridyl]methyl]anilino]-5-methyl-N-methylsulfonyl-thiazole-4-carboxamide]
25 | 31.6 nM | 79.4 nM | CS(=O)(=O)NC(=O)c1nc(N(Cc2ccc(OC(F)(F)F)cc2)c2ccc(C#N)cc2)sc1Br [Example 253, 5-bromo-2-[4-cyano-N-[[4-(trifluoromethoxy)phenyl]methyl]anilino]-N-methylsulfonyl-thiazole-4-carboxamide]
